The results in this text go back to US8608842B2, “Infrared absorbing composition, infrared absorbing ink, recorded article, image recording method, and image detecting method” (FUJIFILM Corporation, priority 2010, dated 2013).

Like-named read-outs stand apart in the source and are kept apart here.

Type in all cases: physicochemical
A short description of data set [1]: Ultraviolet curable ink of Example 4: reflected light of mark for copy protection, before and after xenon irradiation. The following applies: xenon light of 70,000 lux, 72 hours; variation compared to the value before irradiation. On the procedure:
By mixing the components of the composition shown below, an ultraviolet curable ink having an infrared absorbing property was prepared.
By using the ultraviolet curable ink thus obtained, a mark for copy protection was printed on the same base paper as that used in Example 1 by Gravure printing. On top of the printed mark for copy protection, each of the three kinds of a process ink (FDOL Yellow, FDOL Magenta, and FDOL Cyan, trade names, manufactured by TOYO INK MFG. CO., LTD.) was applied as a layer by Gravure printing, or a mixture ink in which the three kinds of a process ink are mixed was applied as a layer by Gravure printing to hide the mark for copy protection, thus obtaining a printed article.
The mark for copy protection that is hidden by the process ink was irradiated with infrared light using a linear sensor (trade name: TCD1500C, manufactured by Toshiba) in which the infrared cut-off filter of linear sensor was replaced with an infrared transmitting filter (trade name: IR83, manufactured by Hoya) as a detection device, and the reflected light was detected simultaneously.
The reflection light intensity in the area of the mark for copy protection at the time of detecting the mark was divided by the reflection light intensity of the area outside the mark for copy protection. The resulting value of the comparative infrared absorbing agent A was set to 1, and a ratio of the resulting value with respect to the resulting value of the comparative infrared absorbing agent A was calculated for each compound.
In addition, the obtained printed article was irradiated continuously with xenon light of 70,000 lux for 72 hours by using a Xenon lamp. After the irradiation, similar to above, the reflection light intensity of the area of the mark for copy protection was divided by the reflection light intensity of the area outside the mark for copy protection, and the variation ratio [%] compared to the value before the irradiation was calculated to use it as an index for evaluation of light resistance.

A short description of data set [2]: Bar code pattern reading (PCS) of printed article before and after xenon light irradiation (light resistance). The following applies: xenon light of 70,000 lux, 200 hours. On the procedure: By mixing the components of the composition shown below, the infrared absorbing printing ink (1) was prepared.
By using each of the infrared absorbing printing ink obtained above, a bar code pattern was formed on a regular paper (trade name: MP-120, manufactured by PLUS Corporation), i.e., a base paper, by Gravure printing.
Subsequently, on the formed bar code pattern, another bar code pattern was additionally formed by using the infrared absorbing ink (2) having the composition shown below.
Next, on top of the bar code patterns formed by disposing two layers, three kinds of process inks having infrared transmittance (FDOL Yellow, FDOL Magenta, and FDOL Cyan, manufactured by TOYO INK MFG. CO., LTD. (trade names, manufactured by TOYO INK MFG. CO., LTD.) were further applied by Gravure printing to form a colored layer made of three visible colors (cyan, magenta, and yellow). As a result, a printed article having a bar code pattern disposed inside the matter was produced.
Two kinds of semiconductor laser beam having wavelengths of 830 nm and 905 nm respectively were irradiated onto the thus obtained printed article, and the detection was made by using a filter which cuts off the emission light having wavelength of 950 nm or less. As a result, it was possible to detect the pattern formed by the infrared absorbing ink.
Subsequently, xenon light of 70,000 lux was irradiated continuously for 200 hours onto the printed article by using a xenon lamp. After that, the reading state of the bar code pattern after the irradiation was evaluated. For the evaluation, PCS (print•contrast•signal) of 0.6 or more was evaluated as “good,” and PCS (print•contrast•signal) of less than 0.6 was evaluated as “bad.” The evaluation results are shown in Table 2 below.
The printed article was prepared in the same manner as Example 1 except that the solvent (a mixture solvent of toluene and methyl isobutyl ketone) in the composition of the infrared absorbing ink (1) and (2) is replaced with n-octane (SP value: 7.6), butyl acetate (SP value: 8.5), or isopropyl alcohol (IPA; SP values: 11.5), and evaluated.
The comparative printed article was prepared in the same manner as Example 1 except that the solvent (a mixture solvent of toluene and methyl isobutyl ketone) in the composition of the infrared absorbing ink (1) and (2) is replaced with n-pentane (SP value: 7.0; Example 2) or ethanol (SP value: 12.7; Example 3), and evaluated.

The nature of data set [3]: Solubility of IR coloring material in toluene at 25° C. On the procedure:
Specifics are as follows.
First, a tetrahydrofuran (THF) solution prepared by adding the IR coloring material to TI-IF is measured by a spectrophotometer and a calibration curve is constructed. Next, a liquid is prepared by adding the IR coloring material to toluene to the level that there is a part of the coloring material left undissolved. The resulting liquid is subjected to ultrasonication for 10 minutes while being maintained at 25° C., and allowed to stand overnight at 25° C. The THF solution obtained after the standing is filtered using a 0.2 μm filter. The filtrate is diluted so that it falls within the linear range of the calibration curve, the absorbance is measured, and quantification is made using the calibration curve.
The solubility shown in Table 1 was measured according to the method described below. Specifics are as follows.
First, the THF solution prepared by adding the IR coloring material to tetrahydrofuran (THF) was measured by a spectrophotometer, and the calibration curve was established. Next, a liquid was prepared by adding the IR coloring material to toluene to the level that there is a part of coloring material left undissolved. The resulting liquid was subjected to ultrasonication for 10 minutes while being kept at 25° C., and allowed to stand overnight at 25° C. The THF solution obtained after the standing was filtered using a 0.2 μm filter. The filtrate was diluted so that it falls within the linear range of the calibration curve, and the absorbance was measured. Based on the measured value, the solubility was quantified using the calibration curve.

Where [4] appears, read: Example 2, ink solvent n-pentane (SP value: 7.0).
Where [5] appears, read: Example 3, ink solvent ethanol (SP value: 12.7).
Setting [6] is: ink solvent IPA (SP value: 11.5).
[7] abbreviates: ink solvent butyl acetate (SP value: 8.5).
Where [8] appears, read: ink solvent n-octane (SP value: 7.6).
The mark [9] stands for this setting: ink solvent toluene/methyl isobutyl ketone = 70/30.

As for `CCOc1c2c(c(OCC)c3ccccc13)-c1nc-2nc2[n-]c(nc3nc(nc4[n-]c(n1)c1c(OCC)c5ccccc5c(OCC)c41)-c1c-3c(OCC)c3ccccc3c1OCC)c1c(OCC)c3ccccc3c(OCC)c21.[Cu+2]` [Compound 23], in data set [1], the “Variation amount after irradiation [%]” value is listed as 4%. In addition, the Reading after irradiation result in data set [2] (setting [4]) was “Bad (PCS (print•contrast•signal) of less than 0.6 was evaluated as “bad.”)”; in data set [2] (setting [5]) it was “Bad (PCS (print•contrast•signal) of less than 0.6 was evaluated as “bad.”)”; in data set [2] (setting [6]), “Good (PCS (print•contrast•signal) of 0.6 or more was evaluated as “good,”)”; in data set [2] (setting [7]), “Good (PCS (print•contrast•signal) of 0.6 or more was evaluated as “good,”)”; in data set [2] (setting [8]) it was “Good (PCS (print•contrast•signal) of 0.6 or more was evaluated as “good,”)”; in data set [2] (setting [9]) it was “Good (PCS (print•contrast•signal) of 0.6 or more was evaluated as “good,”)”. Besides, in data set [3] (toluene, 25° C.), the “Solubility [mg/ml] Solvent: toluene” value is 1.75 mg/mL.

As to `CCCCOc1c2c(c(OCCCC)c3ccccc13)C1=Nc3c4c(OCCCC)c5ccccc5c(OCCCC)c4c4[n]3[Cu][n]3c(c5c(OCCCC)c6ccccc6c(OCCCC)c5c3=NC3=NC(=N4)c4c3c(OCCCC)c3ccccc3c4OCCCC)=NC2=N1` [Compound 24], the “Variation amount after irradiation [%]” value in data set [1] is on record as 3%. The Reading after irradiation result in data set [2] (setting [4]) is “Bad (PCS (print•contrast•signal) of less than 0.6 was evaluated as “bad.”)”; in data set [2] (setting [5]), “Bad (PCS (print•contrast•signal) of less than 0.6 was evaluated as “bad.”)”; in data set [2] (setting [6]), “Good (PCS (print•contrast•signal) of 0.6 or more was evaluated as “good,”)”; in data set [2] (setting [7]), “Good (PCS (print•contrast•signal) of 0.6 or more was evaluated as “good,”)”; in data set [2] (setting [8]), “Good (PCS (print•contrast•signal) of 0.6 or more was evaluated as “good,”)”; in data set [2] (setting [9]) it was “Good (PCS (print•contrast•signal) of 0.6 or more was evaluated as “good,”)”. The “Solubility [mg/ml] Solvent: toluene” value in data set [3] (toluene, 25° C.) came out at 16 mg/mL.

Turning to `CCCCCCCCOc1c2c(c(OCCCCCCCC)c3ccccc13)C1=Nc3c4c(OCCCCCCCC)c5ccccc5c(OCCCCCCCC)c4c4[n]3[Cu][n]3c(c5c(OCCCCCCCC)c6ccccc6c(OCCCCCCCC)c5c3=NC3=NC(=N4)c4c3c(OCCCCCCCC)c3ccccc3c4OCCCCCCCC)=NC2=N1` [Compound 25], the “Variation amount after irradiation [%]” value in data set [1] was found to be 2%. Further, the Reading after irradiation result in data set [2] (setting [4]) is reported as “Bad (PCS (print•contrast•signal) of less than 0.6 was evaluated as “bad.”)”; in data set [2] (setting [5]), “Bad (PCS (print•contrast•signal) of less than 0.6 was evaluated as “bad.”)”; in data set [2] (setting [6]), “Good (PCS (print•contrast•signal) of 0.6 or more was evaluated as “good,”)”; in data set [2] (setting [7]), “Good (PCS (print•contrast•signal) of 0.6 or more was evaluated as “good,”)”; in data set [2] (setting [8]), “Good (PCS (print•contrast•signal) of 0.6 or more was evaluated as “good,”)”; in data set [2] (setting [9]), “Good (PCS (print•contrast•signal) of 0.6 or more was evaluated as “good,”)”. Besides, in data set [3] (toluene, 25° C.), the “Solubility [mg/ml] Solvent: toluene” value was 27 mg/mL.

Regarding `CCCCCCCCOc1c2c(c(OCCCCCCCC)c3ccccc13)C1=Nc3c4c(OCCCCCCCC)c5ccccc5c(OCCCCCCCC)c4c4[n]3[Zn][n]3c(c5c(OCCCCCCCC)c6ccccc6c(OCCCCCCCC)c5c3=NC3=NC(=N4)c4c3c(OCCCCCCCC)c3ccccc3c4OCCCCCCCC)=NC2=N1` [Compound 27], in data set [1], the “Variation amount after irradiation [%]” value is 4%. Further, the Reading after irradiation result in data set [2] (setting [4]) was “Bad (PCS (print•contrast•signal) of less than 0.6 was evaluated as “bad.”)”; in data set [2] (setting [5]), “Bad (PCS (print•contrast•signal) of less than 0.6 was evaluated as “bad.”)”; in data set [2] (setting [6]) it was “Good (PCS (print•contrast•signal) of 0.6 or more was evaluated as “good,”)”; in data set [2] (setting [7]), “Good (PCS (print•contrast•signal) of 0.6 or more was evaluated as “good,”)”; in data set [2] (setting [8]), “Good (PCS (print•contrast•signal) of 0.6 or more was evaluated as “good,”)”; in data set [2] (setting [9]), “Good (PCS (print•contrast•signal) of 0.6 or more was evaluated as “good,”)”. For the same compound, the “Solubility [mg/ml] Solvent: toluene” value in data set [3] is 25 mg/mL.

In the case of `Nc1ccccc1Sc1c2c(c(Sc3ccccc3N)c3c1C1=Nc4c5c(Sc6ccccc6N)c6c(c(Sc7ccccc7N)c5c5[n]4[Cu][n]4c(c7c(Sc8ccccc8N)c8c(c(Sc9ccccc9N)c7c4=NC4=NC(=N5)c5c(Sc7ccccc7N)c7c(c(Sc9ccccc9N)c54)NC4C=CC=CC4S7)SC4C=CC=CC4N8)=NC3=N1)NC1C=CC=CC1S6)SC1C=CC=CC1N2` (stereo not shown) [Compound 69], the “Variation amount after irradiation [%]” value in data set [1] is 4%. Moreover, the Reading after irradiation result in data set [2] (setting [4]) is “Bad (PCS (print•contrast•signal) of less than 0.6 was evaluated as “bad.”)”; in data set [2] (setting [5]) it was “Bad (PCS (print•contrast•signal) of less than 0.6 was evaluated as “bad.”)”; in data set [2] (setting [6]), “Good (PCS (print•contrast•signal) of 0.6 or more was evaluated as “good,”)”; in data set [2] (setting [7]), “Good (PCS (print•contrast•signal) of 0.6 or more was evaluated as “good,”)”; in data set [2] (setting [8]), “Good (PCS (print•contrast•signal) of 0.6 or more was evaluated as “good,”)”; in data set [2] (setting [9]), “Good (PCS (print•contrast•signal) of 0.6 or more was evaluated as “good,”)”. For the same compound, the “Solubility [mg/ml] Solvent: toluene” value in data set [3] (toluene, 25° C.) turned out to be 12 mg/mL.
